In patent US7045528B2, “Benzofused heterozryl amide derivatives of thienopyridines useful as therapeutic agents, pharmaceutical compositions including the same, and methods for their use” (Agouron Pharmaceuticals, Inc., priority 2002, dated 2006):

How the values were obtained:
[1] = test system: human umbilical vein endothelial cells (HUVEC); assay: HUVEC+VEGF proliferation assay; type: cell-based; settings: Homo sapiens, HUVEC; VEGF 6 ng/mL, 72 h, MTT
Experimental: HUVEC+VEGF Proliferation Assay
This assay determines the ability of a test compound to inhibit the growth factor-stimulated proliferation of human umbilical vein endothelial cells (“HUVEC”). HUVEC cells (passage 3–4; Clonetics, Corp.) were thawed into EGM2 culture medium (Clonetics Corp) in T75 flasks. Fresh EGM2 medium was added to the flasks 24 hours later. Four or five days later, cells were exposed to another culture medium (F12K medium supplemented with 10% fetal bovine serum (FBS), 60 μg/mL endothelial cell growth supplement (ECGS), and 0.1 mg/mL heparin). Exponentially-growing HUVEC cells were used in experiments thereafter. Ten to twelve thousand HUVEC cells were plated in 96-well dishes in 100 μl of rich, culture medium (described above). The cells were allowed to attach for 24 hours in this medium. The medium was then removed by aspiration and 105 μl of starvation media (F12K+1% FBS) was added to each well. After 24 hours, 15 μl of test agent dissolved in 1% DMSO in starvation medium or this vehicle alone was added into each treatment well; the final DMSO concentration was 0.1%. One hour later, 30 μl of VEGF (30 ng/mL) in starvation media was added to all wells except those containing untreated controls; the final VEGF concentration was 6 ng/mL. Cellular proliferation was quantified 72 hours later by MTT dye reduction, at which time cells were exposed for 4 hours MTT (Promega Corp.). Dye reduction was stopped by addition of a stop solution (Promega Corp.) and absorbance at 595 nm was determined on a 96-well spectrophotometer plate reader.

PDGFRβ = target: T1, PDGFRβ (Homo sapiens, UniProt P09619); assay: PAE-PDGFRβ phosphorylation in PAE-PDGFRB cells assay; type: cell-based; settings: PAE cells overexpressing human PDGFRβ, PDGF-BB stimulated; read-out: PAE PDGFR autophos IC50 (nM) AVG
T1 construct: expressed in transfected cells; host or cells: porcine aorta endothelial (PAE)-PDGFRβ cells
Experimental: PAE-PDGFRβ Phosphorylation in PAE-PDGFRB Cells Assay
This assay determines the ability of a test compound to inhibit the autophosphorylation of PDGFRβ in porcine aorta endothelial (PAE)-PDGFRβ cells. PAE cells that overexpress human PDGFRβ were used in this assay. The cells were cultured in Ham's F12 media supplemented with 10% fetal bovine serum (FBS) and 400 ug/ml G418. Twenty thousands cells were seeded in each well of a 96-well plate in 50 μL of growth media and allowed to attach for 6 hours at 37° C. Cells were then exposed to the starvation media (Ham's F12 media supplemented with 0.1% FBS) for 16 hours. After the starvation period was over, 10 μL of test agent in 5% DMSO in starvation media were added to the test wells and 10 μL of the vehicle (5% DMSO in starvation media) were added into the control wells. The final DMSO concentration in each well was 0.5%. Plates were incubated at 37° C. for 1 hour and the cells were then stimulated with 1 μg/mL PDGF-BB (R & D System) in the presence of 2 mM Na3VO4 for 8 minutes. The cells were washed once with 1 mm Na3VO4 in HBSS and lysed by adding 50 μL per well of lysis buffer. One hundred μL of dilution buffer were then added to each well and the diluted cell lysate was transferred to a 96-well goat ant-rabbit coated plate (Pierce), which was pre-coated with Rabbit anti Human PDGFRβ antibody (Santa Cruz). The plates were incubated at room temperature for 2 hours and washed seven times with 1% Tween 20 in PBS. HRP-PY20 (Santa Cruz) was diluted and added to the plate for a 30-minute incubation. Plates were then washed again and TMB peroxidase substrate (Kirkegaard & Perry) was added for a 10-minute incubation. One hundred μL of 0.09 N H2SO4 was added into each well of the 96-well plate to stop the reaction. Phosphorylation status was assessed by spectrophotometer reading at 450 nm. IC50 values were calculated by curve fitting using a four-parameter analysis.

Huvec = assay: bFGF Huvec proliferation; type: cell-based, human; settings: Homo sapiens, HUVEC
[2] = target: T2, unphosphorylated VEGF-R2Δ50 (FLVK) (Homo sapiens, UniProt P35968, DEL940-989/E990V); assay: VEGF-R2 coupled spectrophotometric assay, unphosphorylated VEGF-R2Δ50 (FLVK); type: biochemical; settings: unphosphorylated VEGF-R2Δ50; for inhibition at 0.05 µM: 50 nM compound, read-out: FLVK (% inh @ 50 nM)
T2 construct: VEGF-R2Δ50 contains residues 806–939 and 990–1171; made in house; host or cells: baculovirus/insect cell system
Outline: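 Baculovirus-expressed human VEGF-R2Δ50 (kinase insert partly deleted, E990V), unphosphorylated form; ADP production coupled via PK/LDH to NADH oxidation, read at 340 nm. 20 mM poly(E4Y1), 3 mM ATP, 60 mM MgCl2, 2 mM MnCl2, 200 mM HEPES pH 7.5; 5–40 nM enzyme. Ki from Morrison tight-binding fit.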

T1 sequence (P09619 33-1106): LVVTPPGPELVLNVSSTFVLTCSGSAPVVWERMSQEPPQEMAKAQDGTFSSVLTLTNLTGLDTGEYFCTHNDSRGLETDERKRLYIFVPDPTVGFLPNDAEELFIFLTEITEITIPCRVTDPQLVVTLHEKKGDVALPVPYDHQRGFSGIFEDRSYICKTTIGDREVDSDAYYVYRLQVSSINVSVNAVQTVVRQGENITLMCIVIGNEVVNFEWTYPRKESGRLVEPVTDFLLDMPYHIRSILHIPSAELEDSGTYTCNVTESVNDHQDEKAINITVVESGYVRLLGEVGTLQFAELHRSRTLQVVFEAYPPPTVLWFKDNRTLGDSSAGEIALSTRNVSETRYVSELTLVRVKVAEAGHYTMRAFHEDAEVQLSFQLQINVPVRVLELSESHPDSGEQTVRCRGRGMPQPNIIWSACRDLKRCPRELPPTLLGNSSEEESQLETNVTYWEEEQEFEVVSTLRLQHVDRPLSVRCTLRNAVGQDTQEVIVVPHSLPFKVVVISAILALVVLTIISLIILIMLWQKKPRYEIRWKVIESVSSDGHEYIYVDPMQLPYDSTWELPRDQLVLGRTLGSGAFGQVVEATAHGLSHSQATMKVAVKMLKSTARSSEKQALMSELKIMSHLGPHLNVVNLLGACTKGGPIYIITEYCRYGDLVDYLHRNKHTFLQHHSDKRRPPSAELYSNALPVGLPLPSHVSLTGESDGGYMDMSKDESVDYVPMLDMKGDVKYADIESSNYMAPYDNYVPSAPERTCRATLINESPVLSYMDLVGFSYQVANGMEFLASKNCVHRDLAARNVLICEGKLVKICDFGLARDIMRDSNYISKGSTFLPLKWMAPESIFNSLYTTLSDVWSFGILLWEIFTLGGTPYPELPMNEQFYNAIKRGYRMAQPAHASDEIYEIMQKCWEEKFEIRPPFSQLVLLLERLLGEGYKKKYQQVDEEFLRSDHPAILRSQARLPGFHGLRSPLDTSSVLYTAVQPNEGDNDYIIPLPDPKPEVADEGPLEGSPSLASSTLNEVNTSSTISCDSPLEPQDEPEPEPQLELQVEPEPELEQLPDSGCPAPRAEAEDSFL
T2 sequence (P35968 with tags, fused parts or gaps DEL940-989/E990V limits assumed): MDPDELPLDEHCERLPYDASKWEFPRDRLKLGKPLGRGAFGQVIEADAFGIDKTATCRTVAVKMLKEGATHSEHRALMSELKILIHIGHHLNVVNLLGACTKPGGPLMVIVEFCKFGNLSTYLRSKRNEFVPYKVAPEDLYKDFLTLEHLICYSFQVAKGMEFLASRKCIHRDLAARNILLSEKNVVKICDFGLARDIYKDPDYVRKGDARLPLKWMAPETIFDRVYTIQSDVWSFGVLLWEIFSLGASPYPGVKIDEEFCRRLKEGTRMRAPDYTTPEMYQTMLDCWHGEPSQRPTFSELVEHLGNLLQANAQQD

| IC50 (PDGFRβ) | inhibition at 0.05 µM [2] | Ki [2] | SMILES | IC50 [1] | IC50 (Huvec) |
| --- | --- | --- | --- | --- | --- |
| 336 nM | 96% | 0.59 nM | Cc1sc2cc(Oc3ccnc4cc(C(=O)N5CC[C@@H](O)C5)sc34)ccc2c1C(=O)NCC1CC1 [Example 126, 6[(2-{[(3R)-3-Hydroxypyrrolidin-1-yl]carbonyl}thieno[3,2-b]pyridin-7-yl)oxy]-2-methylbenzo[b]thiophene-3-carboxylic acid (cyclopropylmethyl)amide] | 10 nM | 5660 nM |
| 24.2 nM | 77% | 2.95 nM | CNC(=O)c1c(C)n(C)c2cc(Oc3ccnc4cc(-c5nc(C(C)(C)O)cs5)sc34)ccc12 [Example 40, 6-{2-[4(1-Hydroxy-1-methyl-ethyl)-thiazol-2-yl]-thieno[3,2-b]pyridin-7-yloxy}-1,2-dimethyl-1H-indole-3-carboxylic acid methylamide] | 1.12 nM | 7800 nM |
| 168 nM | 88% | 0.2 nM | Cc1sc2cc(Oc3ccnc4cc(-c5nc(CO)cs5)sc34)ccc2c1C(=O)NC1CC1 [Example 129] | 0.219 nM | 100 nM |
| 250 nM | 95% | 0.419 nM | CO[C@@H]1CCN(C(=O)c2cc3nccc(Oc4ccc5c(C(=O)NC6CC6)c(C)oc5c4)c3s2)C1 [Example 89, 6-[2-(3-Methoxypyrrolidine-1-carbonyl)-thieno[3,2-b]pyridin-7-yloxy]-2-methyl-benzofuran-3-carboxylic acid cyclopropylamide] | – | 5.2 nM |
| – | 84% | 1.2 nM | Cc1sc2cc(Oc3ccnc4cc(-c5nccn5C)sc34)ccc2c1C(=O)NCCCO [Example 118, 2-Methyl-6-{[2-(1-methyl-1H-imidazol-2-yl)thieno[3,2-b]pyridin-7-yl]oxy}benzo[b]thiophene-3-carboxylic acid 3-hydroxypropylamide] | 0.9 nM | 736 nM |
| 110 nM | 85% | 0.78 nM | CCc1sc2cc(Oc3ccnc4cc(C(=O)N5CCC5)sc34)ccc2c1C(=O)NC [Example 138, 6-{[2-(Azetidin-1-ylcarbonyl)thieno[3,2-b]pyridin-7-yl]oxy}-2-ethylbenzo[b]thiophene-3-carboxylic acid methylamide] | 9.9 nM | – |
| 229 nM | 74% | 2.63 nM | CO[C@@H]1CCN(C(=O)c2cc3nccc(Oc4ccc5c(C(=O)NCCO)c(C)sc5c4)c3s2)C1 [Example 123, 6-[(2-{[(3R)-3-Methoxypyrrolidin-1-yl]carbonyl}thieno[3,2-b]pyridin-7-yl)oxy]-2-methylbenzo[b]thiophene-3-carboxylic acid 2-hydroxyethylamide] | 10 nM | – |

The remaining lines, values behind:

| SMILES | IC50 (PDGFRβ) | inhibition at 0.05 µM [2] | Ki [2] | IC50 [1] | IC50 (Huvec) |
| --- | --- | --- | --- | --- | --- |
| CCc1sc2cc(Oc3ccnc4cc(C(=O)N5CCC[C@H]5COC)sc34)ccc2c1C(=O)NC [Example 137, 2-Ethyl-6-[(2-{[(2S)-2-(methoxymethyl)pyrrolidin-1-yl]carbonyl}thieno[3,2-b]pyridin-7-yl)oxy]benzo[b]thiophene-3-carboxylic acid methylamide] | 213 nM | 64% | 5.1 nM | 2.1 nM | 294 nM |
| COC[C@@H]1CCCN1C(=O)c1cc2nccc(Oc3ccc4c(C(=O)NCC(C)C)c(C)oc4c3)c2s1 (stereo in doubt) [Example 85, 6[2-(2-Methoxymethyl-pyrrolidine-1-carbonyl)-thieno[3,2-b]pyridin-7-yloxy]-2-methyl-benzofuran-3-carboxylic acid isobutyl amide] | 27.3 nM | 83% | 1.71 nM | 3.92 nM | 6990 nM |
| Cc1c(C(=O)Nc2ccccn2)c2ccc(Oc3ccnc4cc(-c5nccs5)sc34)cc2n1C [Example 70, 1,2-Dimethyl-6-(2-thiazol-2-yl-thieno[3,2-b]pyridin-7-yloxy)-1H-indole-3-carboxylic acid pyridin-2-ylamide] | 47.1 nM | 95% | 0.43 nM | 0.537 nM | 3980 nM |
| Cc1c(C(=O)NCCCO)c2ccc(Oc3ccnc4cc(C(=O)N5CC[C@@H](O)C5)sc34)cc2n1C [Example 64, 6-[2-((R)-3-Hydroxy-pyrrolidine-1-carbonyl)-thieno[3,2-b]pyridin-7-yloxy]-1,2-dimethyl-1H-indole-3-carboxylic acid (3-hydroxy-propyl)-amide] | – | 64% | 11.8 nM | 10 nM | 10000 nM |
| CNC(=O)c1c(C)oc2cc(Oc3ccnc4cc(C(=O)N5CCC5)sc34)ccc12 [Example 77, 6[2-(Azetidine-1-carbonyl)-thieno[3,2-b]pyridin-7-yloxy]-2-methyl-benzofuran-3-carboxylic acid methylamide] | 7.4 nM | 99% | 0.2 nM | 0.2 nM | 8 nM |
| CCc1oc2cc(Oc3ccnc4cc(C(=O)N5CCC[C@H]5CO)sc34)ccc2c1C(=O)NC [Example 97, 2-ethyl-6(2-[(S)-2-(hydroxymethyl)pyrrolidine-1-carbonyl]thieno[3,2-b]pyridin-7-yloxy)-benzofuran-3-carboxylic acid methylamide] | 293 nM | 70% | 4.84 nM | 10 nM | 223 nM |
| Cc1oc2cc(Oc3ccnc4ccsc34)ccc2c1C(=O)Nc1nnc(-c2ccccc2)s1 [Example 106, 2-Methyl-6-(thieno[3,2-b]pyridin-7-yloxy)-benzofuran-3-carboxylic acid (5-phenyl-[1,3,4]thiadiazol-2-yl)-amide] | – | 98% | – | 10 nM | 638 nM |
| CNC(=O)c1c(C)n(C)c2cc(Oc3ccnc4cc(C(=O)N5CCC[C@H]5CO)sc34)ccc12 [Example 16, 6-[2-(2-Hydroxymethyl-pyrrolidine-1-carbonyl)-thieno[3,2-b]pyridin-7-yloxy]-1,2-dimethyl-1H-indole-3-carboxylic acid methylamide] | – | 46% | 8.14 nM | 10 nM | 1000 nM |
| CCc1oc2cc(Oc3ccnc4cc(C(=O)N5CC[C@@H](OC)C5)sc34)ccc2c1C(=O)NC [Example 14, 6-(2-[3-methoxypyrrolidine-1-carbonyl]thieno[3,2-b]pyridin-7-yloxy)-2-ethylbenzofuran-3-carboxylic acid methylamide] | – | 81% | 1.46 nM | 9.4 nM | 287 nM |
| CNC(=O)c1c(C)[nH]c2cc(Oc3ccnc4cc(C(=O)N5CC[C@@H](O)C5)sc34)ccc12 [Example 24, 6-[2-(3-Hydroxy-pyrrolidine-1-carbonyl)-thieno[3,2-b]pyridin-7-yloxy]-2-methyl-1H-indole-3-carboxylic acid methylamide] | – | 69% | 4.2 nM | 32 nM | 10000 nM |
